The subject of one data set is OVCAR3 cell line. The data set is described as follows: ATP luminescence (CellTiter-Glo) cell viability assay, OVCAR3. In kind it is cell-based. The settings on record: Homo sapiens, read-out: EC50 (nM) OVCAR3. As for the experimental part: (§1) An ATP luminescence assay was used, the procedure being as follows: Cells were seeded at 1×10^3 cells/well in 96-well plates for 3 h for ATP CellTiter^Glo™ assays, respectively. Serial dilutions (1:3) of compounds were added to the wells. Plates were allowed to incubate for 72 h. A CellTiter^Glo™ cell viability kit from Promega was used to measure ATP content of cells treated with compounds following manufacturer's instruction. A decrease in the ATP content is a measure of decrease in cellular viability. The EC50 value—the concentration at which an agent reduces cell viability by 50% of the maximum effect—was determined using PRISM™ software, version 5.0 (GraphPad Software, La Jolla, Calif., USA).
(§2) The compounds were tested against ADR, a multi-drug resistant breast cancer cell line as well as the H226, N87, and OVCAR3 cell lines.
Background: ATP-based viability assays read luminescence as a measure of living cells.

For a further data set, the system named is H226 cell line. The data set is described as follows: ATP luminescence (CellTiter-Glo) cell viability assay, H226. The format is cell-based. The settings on record: Homo sapiens, read-out: EC50 (nM) H226. The method, then:
as §1, §2

Data set [1] relates to ADR multi-drug resistant breast cancer cell line. Description: ATP luminescence (CellTiter-Glo) cell viability assay, ADR. The format is cell-based. The settings on record: 72 h, read-out: EC50 (nM) ADR. The method, then:
as §1, §2

Another data set has as its system N87 cell line. The data set is described as follows: ATP luminescence (CellTiter-Glo) cell viability assay, N87. The format is cell-based. The settings on record: 72 h, read-out: EC50 (nM) N87. As for the experimental part: as §1, §2
Data set [2] in a line: Chemical stability observed on preparation and storage. The settings on record: observation on handling and storage; both acid- and base-sensitive, slowly decomposed at −78° C. The format is physicochemical.
The next data set deals with cancer cells. The settings on record: antitumor activity, Nicolaou et al. 2007, 2008; cited from earlier work.
Setting [3] is: OVCAR-3, OVCAR3, 72 h, ATP content.
The mark [4] stands for this setting: NCI-H226, H226, 72 h, ATP content.
The mark [5] stands for this setting: ADR multidrug resistant breast cancer cell line, ATP content.

By EC50 is commonly meant the concentration needed to bring the measured effect to its halfway point. As usually defined, the melting point is the temperature of the solid-liquid transition.

Like-named read-outs stand apart in the source and are kept apart here.

`COc1cc2c(c(OC)c1CN)C(=O)c1c(O)cc3c(c1C2=O)N[C@H]1C#C/C=C\C#C[C@@H](O)[C@@]32O[C@@]12[C@@H](C)O`: the EC50 in the data set with OVCAR3 cell line (setting [3]) was 0.4 nM; with H226 cell line (setting [4]) it was 0.077 nM; in data set [1] (setting [5]), 0.34 nM; in the data set with N87 cell line (N87, ATP content) it was 0.15 nM.
`C[C@@H](O)[C@@]12O[C@]13c1cc(O)c4c(c1N[C@H]2C#C/C=C\C#C[C@H]3O)C(=O)c1ccc(CN)cc1C4=O` [Compound 48aa, 8-Aminomethyl-uncialamycin]: the EC50 with OVCAR3 cell line (setting [3]) is 0.32 nM; in the data set on H226 cell line (setting [4]), 0.028 nM; in data set [1] (setting [5]), 0.02 nM; in the data set on N87 cell line (N87, ATP content), 0.011 nM. In addition, the stability result in data set [2] is given as “extremely unstable”.
`C[C@@H](O)[C@@]12O[C@]13c1cc(O)c4c(c1N[C@H]2C#C/C=C\C#C[C@H]3O)C(=O)c1ccccc1C4=O` [Compound 26a, Uncialamycin]: the melting point was 175 °C (dec.). Further, the EC50 with OVCAR3 cell line (setting [3]) turned out to be 4.7 nM. Also, the EC50 in the data set on H226 cell line (setting [4]) is 1.8 nM. Also, the IC50 result in the data set on cancer cells was “picomolar”. In data set [1] (setting [5]), the EC50 was 0.39 nM. The EC50 in the data set with N87 cell line (N87, ATP content) came to 1.8 nM.
For `C[C@@H](O)[C@@]12O[C@]13c1cc(O)c4c(c1N[C@H]2C#C/C=C\C#C[C@H]3O)C(=O)c1cccc(CN)c1C4=O` [Compound 48da, 9-Aminomethyl-uncialamycin], the stability result in data set [2] is “extremely unstable”.
For `CC(C)[C@H](NC(=O)CCCCCN1C(=O)C=CC1=O)C(=O)N[C@@H](CCCNC(N)=O)C(=O)Nc1ccc(COC(=O)NCc2ccc3c(c2)C(=O)c2c(O)cc4c(c2C3=O)N[C@H]2C#C/C=C\C#C[C@@H](O)[C@@]43O[C@@]23[C@@H](C)O)cc1` [Compound 116], the EC50 in the data set with OVCAR3 cell line (OVCAR-3, 72 h) stood at 16 nM; in the data set with H226 cell line (NCI-H226, 72 h), 4.2 nM; in data set [1], 3.3 nM; in the data set on N87 cell line it was 8.7 nM.
With `C[C@@H](O)[C@@]12O[C@]13c1cc(O)c4c(c1N[C@H]2C#C/C=C\C#C[C@H]3O)C(=O)c1ccc(N)cc1C4=O` [Compound 36a, 8-Amino-uncialamycin, reference compound], the EC50 in the data set on OVCAR3 cell line (setting [3]) is 7.4 nM; in the data set with H226 cell line (setting [4]), 2.4 nM; in data set [1] (setting [5]), 0.67 nM; in the data set with N87 cell line (N87, ATP content), 2.7 nM.
As for `C=CCOC(=O)N1c2c(cc(O)c3c2C(=O)c2ccc(CN)cc2C3=O)[C@@]23O[C@@]2([C@@H](C)O[Si](CC)(CC)CC)[C@@H]1C#C/C=C\C#C[C@H]3O` [Compound 111], the stability entry in data set [2] is reported as “much more stable than 48aa”.
In the case of `C[C@@H](O)[C@@]12O[C@]13c1cc(O)c4c(c1N[C@H]2C#C/C=C\C#C[C@H]3O)C(=O)c1cc(CN)ccc1C4=O` [Compound 48ba, 7-Aminomethyl-uncialamycin], the EC50 in the data set with OVCAR3 cell line (setting [3]) is 0.066 nM; in the data set with H226 cell line (setting [4]) it was 0.012 nM; in data set [1] (setting [5]), 0.029 nM; in the data set on N87 cell line (N87, ATP content), 0.01 nM. Besides, in data set [2], the stability result is recorded as “extremely unstable”.
`C[C@@H](O)[C@@]12O[C@]13c1cc(O)c4c(c1N[C@H]2C#C/C=C\C#C[C@H]3O)C(=O)c1c(CN)cccc1C4=O` [Compound 48ca, 6-Aminomethyl-uncialamycin]: in data set [2], the stability entry was “extremely unstable”.
Regarding `C[C@@H](O)[C@@]12O[C@]13c1cc(O)c4c(c1N[C@H]2C#C/C=C\C#C[C@@H]3O)C(=O)c1ccc(CN)cc1C4=O` [Compound 48ab], the EC50 with OVCAR3 cell line (setting [3]) was 0.28 nM; in the data set on H226 cell line (setting [4]), 0.051 nM; in data set [1] (setting [5]) it was 0.054 nM; with N87 cell line (N87, ATP content), 0.023 nM.
Consider `C[C@@H](O)[C@@]12O[C@]13c1cc(O)c4c(c1N[C@H]2C#C/C=C\C#C[C@H]3O)C(=O)c1cc2c(cc1C4=O)CNC2` [Compound 97, Isoindoline-uncialamycin 97], for which, in data set [2], the stability result is recorded as “extremely unstable”.
The same measure, in the same setting: the value for `CNCc1ccc2c(c1)C(=O)c1c(O)cc3c(c1C2=O)N[C@H]1C#C/C=C\C#C[C@@H](O)[C@@]32O[C@@]12[C@@H](C)O` [Compound 108, N-methyl-8-aminomethyl-uncialamycin 108] was “extremely unstable”.

The record behind these values is US10233192B2, “Derivatives of uncialamycin, methods of synthesis and their use as antitumor agents” (priority 2013, dated 2019).
